Measurements reported in BindingDB's records for doi:10.1016/j.bmcl.2006.07.074 (Boehringer Ingelheim Pharmaceuticals, 2006).

Target: DNA-directed RNA polymerase II (Bos taurus)
Assay: Inhibition of calf thymus DNA dependent RNA polymerase 2

IC50: > 125 µM
SMILES: O=C(O)c1ccc2c(C3CCCCC3)c(-c3ccoc3)[nH]c2c1 [3-cyclohexyl-2-(furan-3-yl)-1H-indole-6-carboxylic acid]
